Measured values taken from patent US20180228124A1, “ANIMAL LITTER COMPRISING CINNAMIC AND/OR ROSMARINIC COMPOUNDS” (The Clorox Company, priority 2017, published 2018).

Tested on: ammonia formation
Assay: Ammonia formation in sodium bentonite clay litter contacted with feline urine, monitored daily
Conditions: for ammonia at day 11 / inhibition of ammonia formation: FIG. 2; for Day 11 NH3 PPM (mean): treatment dosed at 0.5 g per 100 g of litter, FIG. 3 / FIG. 4 data; for ammonia formation versus virgin clay litter control: 0.5 g per 100 g of litter, FIG. 3; for inhibition of ammonia formation: 0.02 g per 100 g of litter (0.02% by weight)
Experimental: The efficacy of various anti-oxidant rich spices was tested for ability to inhibit ammonia growth in litter compositions. FIG. 1 illustrates the results for each test that was performed. Each litter substrate included sodium bentonite clay. A control included virgin clay, with no added spice. Each of the other samples tested included a particular spice, dosed onto or into the clay litter substrate at 1.5 g per 100 g of clay substrate (a 1.5% loading of each of the tested spices). The tested spices were cinnamon, peppermint, rosemary, rubbing sage, spearmint, star anise, sumac, thyme, and turmeric. A control was also tested that included no spice at all. Each sample was contacted with 20 mL of feline urine, and then monitored over a period of 11 days, with the mean PPM of ammonia recorded for each day.
Each of the treatments tested in FIG. 3 were dosed at 0.5 g per 100 g of litter. Many of the other treatments tested were similarly dosed, unless stated otherwise (i.e., 0.5 g per 100 g of litter).

## O=C(O)/C=C/c1ccc(O)c(O)c1 [Caffeic acid, Caffeic Acid]
0.5% caffeic acid (0.5 g per 100 g of litter)
  ammonia at day 11: less than 60 ppm
1% caffeic acid (1 g per 100 g of litter)
  ammonia at day 11: less than 40 ppm
  Day 11 NH3 PPM (mean): 47.894 PPM

## O=C/C=C/c1ccccc1 [Cinnamaldehyde]
  Day 11 NH3 PPM (mean): 4.150 PPM

## CCOC(=O)/C=C/c1ccccc1 [Ethyl cinnamate, Ethyl Cinnamate, reference compound]
  ammonia formation versus virgin clay litter control: promotes ammonia (odor) formation
  Day 11 NH3 PPM (mean): 126.324 PPM

## COc1cc(/C=C/C(=O)O)ccc1O [Ferulic acid, Ferulic Acid]
  Day 11 NH3 PPM (mean): 62.182 PPM

## O=C(O)CCc1ccccc1 [Hydrocinnamic acid]
  Day 11 NH3 PPM (mean): 45.720 PPM

## O=C(/C=C/c1ccc(O)c(O)c1)O[C@H](Cc1ccc(O)c(O)c1)C(=O)O [Rosmarinic acid, Rosmarinic Acid]
0.5% rosmarinic acid, FIG. 4
  efficacy of odor inhibition compared with 0.44% borate treated litter: comparable in efficacy to the borate treated litter substrate
  Day 11 NH3 PPM (mean): 20-30 PPM

## COc1cc(/C=C/C(=O)O)cc(OC)c1O [Sinapic acid, Sinapic Acid]
  Day 11 NH3 PPM (mean): 38.428 PPM

## O=C(O)/C=C/c1ccccc1 [Trans-cinnamic acid, Trans-Cinnamic Acid]
  Day 11 NH3 PPM (mean): 4.493 PPM

## O.O.O.O.O.O.O.O.O.O.O.O.O=S(=O)([O-])[O-].O=S(=O)([O-])[O-].[Al+3].[K+] [alum, hydrated potassium aluminum sulfate, reference compound]
  ammonia formation versus virgin clay litter control: better than the virgin clay litter control

## CC(C)c1cc2c(c(O)c1O)[C@@]1(C(=O)O)CCCC(C)(C)[C@@H]1CC2 [carnosic acid, Carnosic Acid]
  inhibition of ammonia formation: significant inhibition of ammonia formation

## O=C(O)/C=C/c1ccc(O)cc1 [p-coumaric acid, p-Coumaric Acid]
  Day 11 NH3 PPM (mean): 26.199 PPM

## CC(O)C(=O)[O-].[Ag+] (stereo not shown) [silver lactate, reference compound]
  ammonia formation versus virgin clay litter control: better than the virgin clay litter control

## O=C([O-])[O-].O=C([O-])[O-].OO.OO.OO.[Na+].[Na+].[Na+].[Na+] [sodium percarbonate, reference compound]
  ammonia formation versus virgin clay litter control: better than the virgin clay litter control

## C[C@H]1[C@H](C)CC[C@]2(C(=O)O)CC[C@]3(C)C(=CC[C@@H]4[C@@]5(C)CC[C@H](O)C(C)(C)[C@@H]5CC[C@]43C)[C@H]12 [ursolic acid, Ursolic Acid]
  inhibition of ammonia formation: significant inhibition of ammonia formation

## borate [reference compound]
Litter substrate treated with 0.44% borate
  ammonia at day 11: 76 ppm
